# Laboratory results reported in patent US4875922A, “Pyrimidine derivatives” (Imperial Chemical Industries PLC, priority 1986, dated 1989).
# Where two headings read alike, the source gives them in different places.
# Key:
# Wheat = assay: Whole plant screen for plant growth regulator activity, wheat (WW); format: in vivo, Wheat (Timmo); conditions: for G = Greening effect / I = Interligular or internodal length reduction / T = Tillering or side shooting / R = Retardation: WW, 4000 ppm (4 kg/ha), visual score after 2-6 weeks; for T = Tillering or side shooting: * = decrease in tillering
# Outline: (§1)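 Visual scoring of morphological effects after 2-6 weeks in glasshouse, compared with formulation-blank controls. Spray application was 4000 ppm, equal to 4 kg/ha at 1000 l/ha field volume, at set leaf stages. Growth at 25° C./22° C. day/night with 16 hour photoperiod; temperate cereals wheat and barley at 16° C./13° C.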
# Apple [1] = assay: Modified Intermediate Retardant Test, apples; format: in vivo, Apple (Red Delicious); conditions: 2000 g/ha, overall spray, height to apex 21 days after treatment
# From the text: (§2) The general Intermediate Retardant Test described in Example 62 was modified by the addition of Sunflowers (SR) and the variety and growth stages at spray are outlined in Table XIII. Apart from the changes indicated, growing conditions for barley, rice and apples were as in Example 62 and growing conditions for Sunflower were as for apples. Test compounds were applied to barley, rice and apples as whole plant (overall) sprays at a rate of 2000 g/ha. Test compounds were applied to sunflowers separately as a foliar only spray at a rate of 2000 g/ha and as a root drench at a rate of 2000 g/ha.
# (§3) Barley and rice were assessed for height to topmost ligule 21 days after treatment; apples were assessed for height to apex at 21 days after treatment; and sunflowers were assessed for height to apex at 14 days after treatment. The results are expressed as percentage reduction in height compared with the formulation blank in Table XIV.
# Tomato = assay: Whole plant screen for plant growth regulator activity, tomato (TO); format: in vivo, Tomato (Ailsa Craig); conditions: 4000 ppm (4 kg/ha), visual score after 2-6 weeks
# Outline: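 Plant growth regulation scored visually 2–6 weeks post-spray, relative to formulation-blank controls, with growth at 25/22 °C day/night under 16 h light. Treatment: 4000 ppm (4 kg/ha, 1000 l/ha volume) track-sprayed onto Ailsa Craig tomato at the 2–2½ leaf stage, grown singly in 3-inch peat pots.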
# Barley [2] = assay: Whole plant screen for plant growth regulator activity, barley (BR); format: in vivo, Barley (Atem); conditions: BR, 4000 ppm (4 kg/ha), visual score after 2-6 weeks; for T = Tillering or side shooting: * = decrease in tillering
# Outline: as §1
# Sunflower = assay: Modified Intermediate Retardant Test, sunflower; format: in vivo; conditions: 2000 g/ha, height to apex 14 days after treatment; for […] IN HEIGHT, SR (Foliar): foliar only spray; for […] IN HEIGHT, SR (Root): root drench
# From the text: as §2, §3
# Barley [3] = assay: Modified Intermediate Retardant Test, barley; format: in vivo, Barley (Atem); conditions: 2000 g/ha, overall spray, height to topmost ligule 21 days after treatment
# From the text: as §2, §3
# Rice [4] = assay: Modified Intermediate Retardant Test, rice; format: in vivo, Rice (Ishikari); conditions: 2000 g/ha, overall spray, height to topmost ligule 21 days after treatment
# From the text: as §2, §3
# Rice [5] = assay: Whole plant screen for plant growth regulator activity, rice (RC); format: in vivo, Rice (Ishikari); conditions: 4000 ppm (4 kg/ha), visual score after 2-6 weeks; for T = Tillering or side shooting: * = decrease in tillering
# Outline: as §1
# Spring Barley = assay: Intermediate Retardant Test, spring barley; format: in vivo, Spring Barley (Atem/kym); conditions: Hordeum vulgare, 672 h, read-out: Percentage Reduction in Height of Spring Barley (Compared to formulation blank)
# Outline: (§4)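 Overall spray at 500 and 2000 ppm (0.5 and 2 kg/ha^-1 at 1000 l/ha^-1); for apples, a 2000 ppm foliar-only spray was also compared with a 2000 ppm root drench. Rice grew in flooded 4" paddy pots, barley and apples in 4" pots. About 28 days after treatment, height (to top-most ligule, or to apex for apples) was recorded as % reduction versus formulation blank.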
# Apple [6] = assay: Whole plant screen for plant growth regulator activity, apple (AP); format: in vivo, Apple (Red Delicious); conditions: 4000 ppm (4 kg/ha), visual score after 2-6 weeks
# Outline: as §1
# Maize = assay: Whole plant screen for plant growth regulator activity, maize (MZ); format: in vivo, Maize (Earliking); conditions: 4000 ppm (4 kg/ha), visual score after 2-6 weeks
# Method: Compounds 1 to 3 in Table 1 were tested for plant growth regulator activity against five species for various growth effects relevant to plant growth regulation.
# The plant species used in this screen are presented in Table II with the leaf stage at which they were sprayed. Each chemical was applied at 4000 ppm (4 kg/ha in a 1000 l/ha field volume) using a tracksprayer and a SS8004E (Teejet) nozzle.
# After spray the plants were grown in a glasshouse with 25° C. day/22° C. night temperatures and supplementary lighting was supplied when necessary (from mercury vapour lamps), to provide a 16 hour photoperiod. The exception to this were the temperate cereals, wheat and barley which were grown in 16° C. day/13° C. night temperatures.
# After 2-6 weeks in the glasshouse, depending on the time of year, the plants were visually assessed for morphological characteristics. Formulation blanks were used as controls to assess the plants. […]
# Apples [7] = assay: Intermediate Retardant Test, apples, overall spray; format: in vivo, Apples (Red Delicious); conditions: approximately 28 days, Table VIII
# From the text: Three species are involved in this test RICE, SPRING-BARLEY and APPLES. The variety and growth stages at spray are outlined in Table V. Compounds were applied at 500 ppm and 2000 ppm respectively (0.5 kg and 2 kg/ha^-1 at a field volume of 1000 l/ha^-1) as an overall spray except in the case of certain tests on APPLES. This gives a foliar and root component in the test, i.e., this test will detect the activity of both root and foliar acting compounds. The intermediate retardant test on APPLES of which the results are given in Table IX was different, in that a foliar (only) spray at 2000 ppm was compared with a root drench, also at 2000 ppm. The rice was grown in 4" `paddy` pots, i.e., the roots and bottom of the stems are immersed in water under conditions corresponding to those in paddy fields. Spring barley and apples were grown in 4" pots. The plants were assessed for height to top-most ligule at approximately 28 days after treatment for spring barley and rice and for height to apex at approximately 28 days after the treatment for apples. In each case the result for the 500 ppm and 2000 ppm test for each compound is compared to the height of the formulation blank in that test, presented as a percentage reduction in height compared to the formulation blank.
# Rice [8] = assay: Intermediate Retardant Test, rice; format: in vivo, Rice (Ishikari); conditions: Oryza sativa, 672 h, read-out: Percentage Reduction in Height of Rice (Compared to formulation blank)
# Outline: as §4
# Apples [9] = assay: Intermediate Retardant Test, apples, foliar spray compared with root drench; format: in vivo, Apples (Red Delicious); conditions: 672 h, side-by-side comparison with prior art compound, Table XII, read-out: Percentage Reduction in Height of Apples (Compared to formulation blank)
# Outline: as §4
# [10] = overall spray, approximately 28 days, Table VII
# [11] = side-by-side comparison with prior art compound, Table XI
# [12] = overall spray, approximately 28 days, Table VI
# [13] = side-by-side comparison with prior art compound, Table X
Compound,G = Greening effect (Wheat),I = Interligular or internodal length reduction (Wheat),T = Tillering or side shooting (Wheat),"[…] IN HEIGHT, AP (Apple [1])",G = Greening effect (Tomato),R = Retardation (Tomato),G = Greening effect (Barley [2]),I = Interligular or internodal length reduction (Barley [2]),R = Retardation (Barley [2]),T = Tillering or side shooting (Barley [2]),"[…] IN HEIGHT, SR (Foliar) (Sunflower)","[…] IN HEIGHT, SR (Root) (Sunflower)","[…] IN HEIGHT, BR (Barley [3])","[…] IN HEIGHT, RC (Rice [4])",R = Retardation (Wheat),G = Greening effect (Rice [5]),I = Interligular or internodal length reduction (Rice [5]),R = Retardation (Rice [5]),T = Tillering or side shooting (Rice [5]),percent reduction in plant height at 500 ppm (Spring Barley; [11]),further results
CCCCC#CC(O)(c1cncnc1)C(C)(C)C (stereo not shown) [Compound 31],3 (61-100%),3 (61-100%),1 (10-30%),50%,2 (31-60%),3 (61-100%),3 (61-100%),3 (61-100%),3 (61-100%),1 (10-30%),19%,51%,69%,77%,,,,,,,A = Apical damage (Wheat; 4000 ppm): 1 (10-30%); I = Interligular or internodal length reduction (Tomato): 3 (61-100%)
CCCCCC#CC(O)(c1cncnc1)C(C)C (stereo not shown) [Compound 23],2 (31-60%),,,50%,2 (31-60%),2 (31-60%),2 (31-60%),3 (61-100%),3 (61-100%),1 (10-30%),2%,45%,29%,54%,2 (31-60%),,,,,,
"CCCC#CC(O)(c1cncnc1)C(C)C (stereo not shown) [Compound 2, 2-methyl-1-(pent-1-yne)-1-(pyrimidin-5-yl)-propan-1-ol]",2 (31-60%),3 (61-100%),2 (31-60%),,,,1 (10-30%),3 (61-100%),3 (61-100%),3 (61-100%),,,,,2 (31-60%),2 (31-60%),3 (61-100%),3 (61-100%),3 (61-100%),25%,percent reduction in plant height at 500 ppm (Spring Barley; [10]): 1%; percent reduction in plant height at 2000 ppm (Spring Barley; [10]): 20%; percent reduction in plant height at 2000 ppm (Spring Barley; [11]): 59%; G = Greening effect (Apple [6]): 1 (10-30%); I = Interligular or internodal length reduction (Apple [6]): 2 (31-60%); R = Retardation (Apple [6]): 3 (61-100%); I = Interligular or internodal length reduction (Maize): 1 (10-30%); R = Retardation (Maize): 2 (31-60%); Percentage Reduction in Height of Apples (Compared to formulation blank) (Apples [7]; 500 ppm): 10.5%; Percentage Reduction in Height of Apples (Compared to formulation blank) (Apples [7]; 2000 ppm): 52.1%; Percent reduction in rice height vs formulation blank at 500 ppm (Rice [8]; [12]): 18%; Percent reduction in rice height vs formulation blank at 500 ppm (Rice [8]; [13]): 27%; Percent reduction in rice height vs formulation blank at 2000 ppm (Rice [8]; [12]): 46%; Percent reduction in rice height vs formulation blank at 2000 ppm (Rice [8]; [13]): 69%; percent reduction in plant height at 2000 ppm (Apples [9]; 2000 ppm (Foliar)): 41.8%; percent reduction in plant height at 2000 ppm (Apples [9]; 2000 ppm (Root)): 64.4%
"CCCCCC(O)(c1cncnc1)C(C)C (stereo not shown) [Compound 3, 2-methyl-1-pentyl-1-(pyrimidin-5-yl)-propan-1-ol]",1 (10-30%),3 (61-100%),2 (31-60%),,,,2 (31-60%),3 (61-100%),3 (61-100%),3 (61-100%),,,,,3 (61-100%),2 (31-60%),2 (31-60%),3 (61-100%),1 (10-30%),0%,percent reduction in plant height at 2000 ppm (Spring Barley; [10]): 11%; G = Greening effect (Apple [6]): 1 (10-30%); I = Interligular or internodal length reduction (Apple [6]): 2 (31-60%); R = Retardation (Apple [6]): 3 (61-100%); A = Apical damage (Maize): 1 (10-30%); Percentage Reduction in Height of Apples (Compared to formulation blank) (Apples [7]; 2000 ppm): 34.1%; Percent reduction in rice height vs formulation blank at 500 ppm (Rice [8]; [12]): 17%; Percent reduction in rice height vs formulation blank at 500 ppm (Rice [8]; [13]): 17%; Percent reduction in rice height vs formulation blank at 2000 ppm (Rice [8]; [12]): 47%; percent reduction in plant height at 2000 ppm (Apples [9]; 2000 ppm (Foliar)): 14.2%; percent reduction in plant height at 2000 ppm (Apples [9]; 2000 ppm (Root)): 62.7%
